# Where a name gives a salt, the structure may show the parent alone.
# Tested on: H1N1 (influenza A/New Caledonia/20/99)
# Assay: Antiviral effect on A549 cells infected with H1N1
# Type: cell-based, H1N1 A/New Caledonia/20/99 virus
# Details: Human A549 cells, MOI of 0.1, 48 h post-infection, MUNANA hydrolysis readout
# Protocol: The antiviral effect of the compounds of the invention has been tested on A549 cell lines infected with H1N1 (influenza A/New Caledonia/20/99).
# Human A549 cells (80,000 cells/well in a 96 well plate) were treated with a range of concentration of test molecules and immediately infected by H1N1 A/New Caledonia/20/99 virus (clinical isolate) at MOI of 0.1 in DMEM/1% Penicillin/streptomycin supplemented with 0.25 μg/ml TPCK trypsin (Sigma) and incubated at 37° C. in 5% CO2. 48 h post-infection, supernatants (25 μl) were collected and transferred into a 96-well black flat-bottom plate, mixed with 25 μl PBS with Ca++/Mg++(Thermo Fisher) and 50 μl of 2′-(4-Methylumbelliferyl)-α-D-N-acetylneuraminic acid sodium salt hydrate stock-solution (20 μM, MUNANA, Sigma). Plates were incubated 1 h at 37° C. and reaction is stopped by adding 100 μl of Stop Solution (glycine 0.1 M pH10.7/25% ethanol). The amount of fluorescent product released by MUNANA hydrolysis (4-MU) was measured in a Tecan spectrophotometer with excitation and emission wavelengths of 365 and 450 nm respectively.
# [1] = Influenza A virus, H1N1, A549, 48 h
SMILES,IC50 [1],IC50
COc1cccc(C(=O)Nc2sc3c(c2C(=O)O)CCC(C(C)(C)C)C3)c1 (centres unmarked) [#2],70 nM,–
COc1ccc(C(=O)Nc2sc3c(c2C(=O)O)CCC(C(C)(C)C)C3)cc1OC (centres unmarked) [#3],55 nM,–
COc1cc(C(=O)Nc2sc3c(c2C(=O)O)CCC(C(C)(C)C)C3)cc(OC)c1OC (centres unmarked) [#4],1070 nM,–
COc1ccc(C(=O)Nc2sc3c(c2C(=O)O)CCC(C(C)(C)C)C3)c(F)c1 (centres unmarked) [#5],60 nM,–
COc1ccc(C(=O)Nc2sc3c(c2C(=O)O)CCC(C(C)(C)C)C3)c(F)c1F (centres unmarked) [#6],90 nM,–
CC(C)(C)C1CCc2c(sc(NC(=O)c3ccc(OC(F)F)cc3)c2C(=O)O)C1 (centres unmarked) [#7],34.6 nM,–
CC(C)(C)C1CCc2c(sc(NC(=O)c3ccc(OC(F)(F)F)cc3)c2C(=O)O)C1 (centres unmarked) [#8],38.5 nM,–
CC(C)(C)C1CCc2c(sc(NC(=O)c3ccc(N4CCOCC4)cc3)c2C(=O)O)C1 (centres unmarked) [#9],70 nM,–
CC(C)(C)OC(=O)NCCCOc1ccc(C(=O)Nc2sc3c(c2C(=O)O)CCC(C(C)(C)C)C3)cc1 (centres unmarked) [#11],140 nM,–
CC(C)(C)C1CCc2c(sc(NC(=O)c3ccc(OCCO)cc3)c2C(=O)O)C1 (centres unmarked) [#12],450 nM,–
O=C(Nc1sc2c(c1C(=O)O)C1CCC2C1)c1ccccc1 (centres unmarked) [#28],–,1270 nM
Cc1ccccc1C(=O)Nc1sc2c(c1C(=O)O)CCC(c1ccccc1)C2 (centres unmarked) [#45],338 nM,–
O=C(Nc1sc2c(c1C(=O)O)CCC(c1ccccc1)C2)c1ccccc1 (centres unmarked) [#47A],–,40 nM
O=C(Nc1sc2c(c1C(=O)O)CCC(c1ccccc1)C2)c1ccccc1 (centres unmarked) [#47B],–,70 nM
COc1ccc(C(=O)Nc2sc3c(c2C(=O)O)CCC(c2ccccc2)C3)cc1OC (centres unmarked) [#48],90 nM,–
O=C(Nc1sc2c(c1C(=O)O)CCC(c1ccccc1)C2)c1ccc(O)cc1 (centres unmarked) [#49],410 nM,–
O=C(Nc1sc2c(c1C(=O)O)CCC(c1ccccc1)C2)c1ccc(OCCO)cc1 (centres unmarked) [#50],90 nM,–
COCCOc1ccc(C(=O)Nc2sc3c(c2C(=O)O)CCC(c2ccccc2)C3)cc1 (centres unmarked) [#51],38 nM,–
Cc1cc(F)ccc1N1CCc2c(sc(NC(=O)c3ccccc3)c2C(=O)O)C1 [#53],140 nM,–
COc1ccc(C(=O)Nc2sc3c(c2C(=O)O)CCN(c2ccc(F)cc2C)C3)c(F)c1 [#55],410 nM,–
O=C(Nc1sc2c(c1C(=O)O)CCN(c1ccc(F)cc1F)C2)c1ccccc1 [#56],150 nM,–

SMILES,IC50 [1],IC50
Cc1ccccc1N1CCc2c(sc(NC(=O)c3ccccc3)c2C(=O)O)C1 [#57],210 nM,–
CC(C)(C)C1CCc2c(sc(NC(=O)c3ccccc3)c2C(=O)O)C1 (centres unmarked) [#66],–,69.3 nM
CC(C)(C)C1CCc2c(sc(NC(=O)c3ccccc3)c2C(=O)O)C1 (centres unmarked) [#67],–,91.7 nM
CC(C)(C)C1CCc2c(sc(NC(=O)c3ccc(F)cc3)c2C(=O)O)C1 (centres unmarked) [#68],120 nM,–
CC1CCCc2sc(NC(=O)c3ccc(N4CCOCC4)cc3)c(C(=O)O)c21 (centres unmarked) [#70],146 nM,–
CC(C)(C)C1CCc2c(sc(NC(=O)c3ccccn3)c2C(=O)O)C1 (centres unmarked) [#72],170 nM,–
CC(C)(C)C1CCc2c(sc(NC(=O)c3ccccc3F)c2C(=O)O)C1 (centres unmarked) [#73],–,180 nM
CC1CCCc2sc(NC(=O)c3ccc(OC(F)F)cc3)c(C(=O)O)c21 (centres unmarked) [#75],210 nM,–
COc1ccc(C(=O)Nc2sc3c(c2C(=O)O)C(C)CCC3)c(F)c1 (centres unmarked) [#76],218 nM,–
O=C(Nc1sc2c(c1C(=O)O)CCCC2)c1ccccc1 [#77],260 nM,–
CC1CCCc2sc(NC(=O)c3ccccc3)c(C(=O)O)c21 (centres unmarked) [#79],–,292 nM
COc1ccc(C(=O)Nc2sc3c(c2C(=O)O)C(C)CCC3)cc1OC (centres unmarked) [#81],339 nM,–
CC(C)(C)C1CCc2c(sc(NC(=O)c3cccc(F)c3)c2C(=O)O)C1 (centres unmarked) [#83],380 nM,–
O=C(Nc1sc2c(c1C(=O)O)CCCCC2)c1ccccc1 [#84],400 nM,–
Cc1ccccc1C(=O)Nc1sc2c(c1C(=O)O)CCC(C)C2 (centres unmarked) [#86],410 nM,–
Cc1ccccc1C(=O)Nc1sc2c(c1C(=O)O)CCC(C(C)(C)C)C2 (centres unmarked) [#87],–,445 nM
CC1CCCc2sc(NC(=O)c3ccccc3)c(C(=O)O)c21 (centres unmarked) [#88],–,547 nM
CC1CCCCC1C(=O)Nc1sc2c(c1C(=O)O)CCC(C(C)(C)C)C2 (centres unmarked) [#89],590 nM,–
COc1ccc(C(=O)Nc2sc3c(c2C(=O)O)CCC(C(C)(C)C)C3)nc1 (centres unmarked) [#91],620 nM,–
O=C(Nc1sc2c(c1C(=O)O)CCN(c1ccc(C(F)(F)F)cc1)C2)c1ccccc1 [#92],660 nM,–
CC(=O)Nc1ccc(C(=O)Nc2sc3c(c2C(=O)O)CCC(C(C)(C)C)C3)cc1 (centres unmarked) [#93],660 nM,–

SMILES,IC50 [1],IC50
Cc1ccccc1C(=O)Nc1sc2c(c1C(=O)O)CCCC2 [#95],723 nM,–
CC(C)(C)C1CCc2c(sc(NC(=O)c3ccccc3C(F)(F)F)c2C(=O)O)C1 (centres unmarked) [#97],800 nM,–
CC(C)(C)C1CCc2c(sc(NC(=O)c3ccc4c(c3)OC(F)(F)O4)c2C(=O)O)C1 (centres unmarked) [#99],830 nM,–
CC(C)(C)C1CCc2c(sc(NC(=O)c3ccccc3C(F)(F)F)c2C(=O)O)C1 (centres unmarked) [#100],–,873 nM
Cn1cc(C(=O)Nc2sc3c(c2C(=O)O)CCC(C(C)(C)C)C3)cn1 (centres unmarked) [#101],943 nM,–
CC1CCCc2sc(NC(=O)c3cccc(OC(F)F)c3)c(C(=O)O)c21 (centres unmarked) [#102],970 nM,–
COc1ccccc1C(=O)Nc1sc2c(c1C(=O)O)CCC(C(C)(C)C)C2 (centres unmarked) [#104],1050 nM,–
CC(C)(C)C(=O)Nc1sc2c(c1C(=O)O)CCC(c1ccccc1)C2 (centres unmarked) [#106],1100 nM,–
O=C(Nc1sc2c(c1C(=O)O)C(c1ccccc1)CCC2)c1ccc(OC(F)F)cc1 (centres unmarked) [#108],1170 nM,–
CC(C)(C)C1CCc2c(sc(NC(=O)c3ccccc3C(F)(F)F)c2C(=O)O)C1 (centres unmarked) [#109],–,1200 nM
Cc1ccoc1C(=O)Nc1sc2c(c1C(=O)O)CCC(C(C)(C)C)C2 (centres unmarked) [#110],1200 nM,–
Cc1ccccc1C(=O)Nc1sc2cc(C(C)(C)C)ccc2c1C(=O)O [#111],1370 nM,–
COc1ccc(C(=O)Nc2sc3c(c2C(=O)O)CCN(c2ccc(F)cc2)C3)cc1OC [#113],1370 nM,–
CC1(C)Cc2c(sc(NC(=O)c3ccccc3)c2C(=O)O)CO1 [#116],1700 nM,–
Cc1cccc(C)c1C(=O)Nc1sc2c(c1C(=O)O)CCC(C(C)(C)C)C2 (centres unmarked) [#118],1950 nM,–
COc1ccc(C(=O)Nc2sc3c(c2C(=O)O)CC(C)(C)OC3)cc1OC [#119],2200 nM,–
CC(C)(C)C1CCc2c(sc(NC(=O)N3CCCCC3)c2C(=O)O)C1 (centres unmarked) [#120],2270 nM,–
Cc1ccccc1C(=O)Nc1sc2c(c1C(=O)O)CCC2 [#121],2350 nM,–
O=C(Nc1sc2c(c1C(=O)O)CCC(c1ccc(O)cc1)C2)c1ccccc1 (centres unmarked) [#122],2370 nM,–
CC(C)(C)C1CCc2c(sc(NC(=O)c3ccncc3)c2C(=O)O)C1 (centres unmarked) [#123],2700 nM,–
"CC(C)(C)C1CCc2c(sc(NC(=O)c3ccc(OCCCN)cc3)c2C(=O)O)C1 (centres unmarked) [#124, hydrochloride salt]",2700 nM,–

SMILES,IC50 [1],IC50
CC(C)(C)C1CCc2c(sc(NC(=O)Cc3ccccc3)c2C(=O)O)C1 (centres unmarked) [#125],2800 nM,–
Cc1ccccc1C(=O)Nc1sc2c(c1C(=O)O)CCN(C(=O)OC(C)(C)C)C2 [#126],2900 nM,–
Cc1ccccc1C(=O)Nc1sc2ccccc2c1C(=O)O [#128],5000 nM,–
"Cc1ccccc1C(=O)Nc1sc2c(c1C(=O)O)CCN(CC(C)C)C2 [#129, formate salt]",16600 nM,–
COC(=O)CCCCCOc1ccc(C(=O)Nc2sc3c(c2C(=O)O)CCC(C(C)(C)C)C3)cc1 (centres unmarked) [#172],510 nM,–
CC1(C)Cc2c(sc(NC(=O)c3ccccc3)c2C(=O)O)C(C)(C)O1 [#175],740 nM,–
COC1CN(c2ccc(C(=O)Nc3sc4c(c3C(=O)O)CCC4)cc2)C1 [#207],380 nM,–
O=C(Nc1sc2c(c1C(=O)O)CCC2)c1ccccc1 [#210],817 nM,–
O=C(Nc1sc2c(c1C(=O)O)CCC2)c1ccc(NCC2CCOCC2)cc1 [#211],260 nM,–
COC1CN(c2ccc(C(=O)Nc3sc4c(c3C(=O)O)CCCC4)cc2)C1 [#215],110 nM,–
O=C(Nc1sc2c(c1C(=O)O)CCCC2)c1ccc(NCC2CCOCC2)cc1 [#216],60 nM,–
COC1CN(c2ccc(C(=O)Nc3sc4c(c3C(=O)O)CC(C)(C)OC4(C)C)cc2)C1 [#217],510 nM,–
COCCNc1ccc(C(=O)Nc2sc3c(c2C(=O)O)CCC3)cc1 [#231],890 nM,–
CC1(C)Cc2c(sc(NC(=O)c3ccc(NC4CCOCC4)cc3)c2C(=O)O)C(C)(C)O1 [#232],1380 nM,–
CC1(C)Cc2c(sc(NC(=O)c3ccc(NCC4CCOCC4)cc3)c2C(=O)O)C(C)(C)O1 [#233],220 nM,–
COCCNc1ccc(C(=O)Nc2sc3c(c2C(=O)O)CC(C)(C)OC3(C)C)cc1 [#234],980 nM,–
CC(C)(C)C1CCc2c(sc(NC(=O)c3ccc(F)cc3)c2C(=O)O)C1 (centres unmarked) [#236],–,131 nM
CC(C)(C)C1CCc2c(sc(NC(=O)c3ccc(F)cc3)c2C(=O)O)C1 (centres unmarked) [#237],–,211 nM
CC(C)(C)C1CCc2c(sc(NC(=O)c3ccccc3F)c2C(=O)O)C1 (centres unmarked) [#238],–,310 nM
Cc1ccccc1C(=O)Nc1sc2c(c1C(=O)O)CCC(C(C)(C)C)C2 (centres unmarked) [#239],–,548 nM
